Experiments:
BRD4 = biological target: T1, BRD4 (Homo sapiens, UniProt O60885); assay: BRD4 degradation in HeLa cells by Western blot; assay type: cell-based
T1 construct: HeLa cells, which express BRD4 at high levels, were selected as a model cell line; host or cells: HeLa
Method: 80-O14B LNP was formulated by directly dissolving the lipidoid into 25 mM sodium acetate solution (pH=5.5). 80-O14B LNP was added into the solution with the final concentration of 5 μg/mL and the solution was incubated at room temperature for another 15 min before administration. Pre-fused ARV-825 or SARD279 were prepared through the similar route.
Generally, Western blots was carried out on the Invitrogen Novex SureLock Mini-Cell system. Supplies for the system were bought from Invitrogen (Carlsbad, CA, USA) […] sample was loaded onto 4-12% bis-tris protein gel and the gel was run with a stable voltage of 120 V for 80 min. Then the gel was cut according to the protein ladder and transferred to PVDF membrane with a stable current of 250 mA for 3 h. The membrane was blocked by 5% skimmed milk for 1 h at room temperature and then incubated with primary antibody overnight. After 3 cycles of washing by TBST (tris-buffered saline, 0.1% tween 20), the membrane was incubated with secondary antibody for another 1 h and then washed by TBST for 3 times. The final membrane was then imaged using enhanced chemiluminescence (ECL) substrate.
1×10^6 HeLa cells were cultured in 6 well plate for 24 h before administration. […] After 24 h incubation, the proteins were isolated from HeLa cells using the radio-immunoprecipitation assay (RIPA) lysis buffer and quantitated by bicinchoninic acid assay (BCA assay). Then the proteins were diluted to the sample concentration using NuPAGE LDS sample buffer (Invitrogen, Carlsbad, CA, USA) and denatured at 95° C. for 5 min. The study of targeted protein degradation by ARV-825 and SARD279 were carried out using similar protocols.

androgen receptor (AR) = biological target: T2, androgen receptor (AR) (Homo sapiens, UniProt P10275, T878A); assay: AR degradation in LNCaP cells by Western blot; assay type: cell-based; conditions: 0.125 to 0.5 μM
T2 construct: The study of targeted protein degradation by ARV-825 and SARD279 were carried out using similar protocols; host or cells: LNCaP
T2 sequence (P10275 1-920 T878A): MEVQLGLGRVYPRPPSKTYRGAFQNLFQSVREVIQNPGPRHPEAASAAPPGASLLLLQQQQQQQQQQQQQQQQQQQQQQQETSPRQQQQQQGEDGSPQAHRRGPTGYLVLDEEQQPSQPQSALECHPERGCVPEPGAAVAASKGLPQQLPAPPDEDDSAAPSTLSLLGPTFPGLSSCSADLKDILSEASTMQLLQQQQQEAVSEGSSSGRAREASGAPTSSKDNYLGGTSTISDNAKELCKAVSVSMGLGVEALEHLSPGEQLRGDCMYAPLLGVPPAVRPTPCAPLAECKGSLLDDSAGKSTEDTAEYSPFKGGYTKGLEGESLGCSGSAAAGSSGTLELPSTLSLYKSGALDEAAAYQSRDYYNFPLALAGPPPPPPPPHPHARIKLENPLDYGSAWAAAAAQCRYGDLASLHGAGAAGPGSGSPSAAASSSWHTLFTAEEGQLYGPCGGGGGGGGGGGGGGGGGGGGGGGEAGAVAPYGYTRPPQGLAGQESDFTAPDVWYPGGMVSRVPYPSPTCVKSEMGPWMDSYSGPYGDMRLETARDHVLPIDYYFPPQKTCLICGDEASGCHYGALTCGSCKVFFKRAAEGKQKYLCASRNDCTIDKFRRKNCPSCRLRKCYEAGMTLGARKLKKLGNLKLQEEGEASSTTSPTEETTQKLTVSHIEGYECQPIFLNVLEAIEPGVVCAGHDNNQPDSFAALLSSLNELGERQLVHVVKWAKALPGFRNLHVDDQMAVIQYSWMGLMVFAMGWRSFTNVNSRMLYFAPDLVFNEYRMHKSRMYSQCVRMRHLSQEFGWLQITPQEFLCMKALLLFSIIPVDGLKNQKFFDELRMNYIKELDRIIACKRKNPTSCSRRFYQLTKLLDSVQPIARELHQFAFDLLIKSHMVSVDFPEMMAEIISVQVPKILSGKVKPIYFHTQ

Row | BRD4 levels remained (BRD4; 24 h, 25 and 50 nM) | BRD4 degradation, time-dependent (BRD4; after 8 h) | BRD4 degradation, time-dependent (BRD4; after 24 h) | BRD4 degradation, time-dependent (BRD4; first 6 h) | Compound | AR degradation (androgen receptor (AR))
1 | more than 80% | Small amounts of degradation | total degradation | no significant degradation | Cc1ncsc1-c1ccc([C@H](C)NC(=O)[C@@H]2C[C@@H](O)CN2C(=O)[C@@H](NC(=O)COCCCOCCNC(=O)C[C@@H]2N=C(c3ccc(Cl)cc3)c3c(sc(C)c3C)-n3c(C)nnc32)C(C)(C)C)cc1 [ARV-771] | 
2 |  |  |  |  | CC1(C)C(=O)N(c2ccc(C#N)c(C(F)(F)F)c2)C(=S)N1CCCC(=O)NCCOCCOC(=O)CC12CC3CC(CC(C3)C1)C2 [SARD279] | no AR degradation

Reference: patent publication US20230414723A1, “ENHANCED HYT-INDUCED PROTEIN DEGRADATION USING LIPID NANOPARTICLE DELIVERY” (Trustees of Tufts College, priority 2020, published 2023)
